Assay results published in patent US10167262B2, “Herbicidal substituted 3-arylpyrazoles” (FMC CORPORATION, priority 2014, dated 2019).

Columns and labels:
Format in all cases: in vivo
[1] = tested on: morningglory (Ipomoea spp.); test: Test A pre-/postemergence greenhouse herbicide test, visual injury rating 0-100
Excerpt: (§1) Seeds of plant species selected from barnyardgrass (Echinochloa crus-galli), large (Lg) crabgrass (Digitaria sanguinalis), giant foxtail (Setaria faberii), morningglory (Ipomoea spp.), pigweed (Amaranthus retroflexus), velvetleaf (Abutilon theophrasti), wheat (Triticum aestivum), and corn (Zea mays) were planted into a blend of loam soil and sand and treated preemergence with a directed soil spray using test chemicals formulated in a non-phytotoxic solvent mixture which included a surfactant. At the same time these species were also treated with postemergence applications of test chemicals formulated in the same manner. Plants ranged in height from 2 to 10 cm and were in the one- to two-leaf stage for the postemergence treatment. Treated plants and untreated controls were maintained in a greenhouse for approximately 10 days, after which time all treated plants were compared to untreated controls and visually evaluated for injury. Plant response ratings, summarized in Table A, are based on a 0 to 100 scale where 0 is no effect and 100 is complete control. A dash (-) response means no test result.

[2] = tested on: velvetleaf (Abutilon theophrasti); test: as above
Excerpt: as §1

[3] = tested on: corn (Zea mays); test: as above
Excerpt: as §1

[4] = tested on: large (Lg) crabgrass (Digitaria sanguinalis); test: as above
Excerpt: as §1

[5] = tested on: barnyardgrass (Echinochloa crus-galli); test: as above
Excerpt: as §1

[6] = tested on: giant foxtail (Setaria faberii); test: as above
Excerpt: as §1

[7] = tested on: pigweed (Amaranthus retroflexus); test: as above
Excerpt: as §1

[8] = tested on: wheat (Triticum aestivum); test: as above
Excerpt: as §1

[9] = tested on: rice (Oryza sativa); test: Test B flooded paddy test, plant response rating 0-100; settings: Flood, 250 g ai/ha; scale 0 to 100 (0 no effect, 100 complete control); 13 to 15 days
Excerpt: (§2) At time of treatment, test pots were flooded to 3 cm above the soil surface, treated by application of test compounds directly to the paddy water, and then maintained at that water depth for the duration of the test. Treated plants and controls were maintained in a greenhouse for 13 to 15 days, after which time all species were compared to controls and visually evaluated. […] A dash (-) response means no test result.

[10] = tested on: barnyardgrass (Echinochloa crus-galli); test: as above; settings: Flood, 250 g ai/ha; scale 0 to 100 (0 no effect, 100 complete control); 13 to 15 days
Excerpt: as §2

[11] = tested on: sedge, umbrella (small-flower umbrella sedge, Cyperus difformis); test: as above; settings: Flood, 250 g ai/ha; scale 0 to 100 (0 no effect, 100 complete control); 13 to 15 days
Excerpt: as §2

[12] = tested on: ducksalad (Heteranthera limosa); test: as above; settings: Flood, 250 g ai/ha; scale 0 to 100 (0 no effect, 100 complete control); 13 to 15 days
Excerpt: as §2

O=C(c1ccccc1)c1cn(C(=O)Cc2ccccc2)nc1-c1cc(Cl)cc(Cl)c1 [Compound 4]
Plant response rating (0 to 100 scale), Morningglory ([1]; Postemergence, 125 g ai/ha): 0 | Plant response rating (0 to 100 scale), Morningglory ([1]; Postemergence, 500 g ai/ha): 0 | Morningglory plant response rating (0 = no effect, 100 = complete control) ([1]; Preemergence, 125 g ai/ha): 0 | Plant response rating (0 to 100 scale), Morningglory ([1]; Preemergence, 500 g ai/ha): 0 | Plant response rating (0 to 100 scale), Velvetleaf ([2]; Postemergence, 125 g ai/ha): 80 | Plant response rating (0 to 100 scale), Velvetleaf ([2]; Postemergence, 500 g ai/ha): 90 | Velvetleaf plant response rating (0 = no effect, 100 = complete control) ([2]; Preemergence, 125 g ai/ha): 70 | Plant response rating (0 to 100 scale), Velvetleaf ([2]; Preemergence, 500 g ai/ha): 90 | Plant response rating (0 to 100 scale), Corn ([3]; Postemergence, 125 g ai/ha): 0 | Plant response rating (0 to 100 scale), Corn ([3]; Postemergence, 500 g ai/ha): 0 | Corn plant response rating (0 = no effect, 100 = complete control) ([3]; Preemergence, 125 g ai/ha): 0 | Plant response rating (0 to 100 scale), Corn ([3]; Preemergence, 500 g ai/ha): 0 | Plant response rating (0 to 100 scale), Crabgrass, Large ([4]; Postemergence, 125 g ai/ha): 0 | Plant response rating (0 to 100 scale), Crabgrass, Large ([4]; Postemergence, 500 g ai/ha): 0 | Crabgrass, Large plant response rating (0 = no effect, 100 = complete control) ([4]; Preemergence, 125 g ai/ha): 0 | Plant response rating (0 to 100 scale), Crabgrass, Large ([4]; Preemergence, 500 g ai/ha): 20 | Plant response rating (0 to 100 scale), Barnyardgrass ([5]; Postemergence, 125 g ai/ha): 0 | Plant response rating (0 to 100 scale), Barnyardgrass ([5]; Postemergence, 500 g ai/ha): 0 | Barnyardgrass plant response rating (0 = no effect, 100 = complete control) ([5]; Preemergence, 125 g ai/ha): 0 | Plant response rating (0 to 100 scale), Barnyardgrass ([5]; Preemergence, 500 g ai/ha): 0 | Plant response rating (0 to 100 scale), Foxtail, Giant ([6]; Postemergence, 125 g ai/ha): 0 | Plant response rating (0 to 100 scale), Foxtail, Giant ([6]; Postemergence, 500 g ai/ha): 10 | Foxtail, Giant plant response rating (0 = no effect, 100 = complete control) ([6]; Preemergence, 125 g ai/ha): 0 | Plant response rating (0 to 100 scale), Foxtail, Giant ([6]; Preemergence, 500 g ai/ha): 30 | Plant response rating (0 to 100 scale), Pigweed ([7]; Postemergence, 125 g ai/ha): 70 | Plant response rating (0 to 100 scale), Pigweed ([7]; Postemergence, 500 g ai/ha): 80 | Pigweed plant response rating (0 = no effect, 100 = complete control) ([7]; Preemergence, 125 g ai/ha): 80 | Plant response rating (0 to 100 scale), Pigweed ([7]; Preemergence, 500 g ai/ha): 90 | Plant response rating (0 to 100 scale), Wheat ([8]; Postemergence, 125 g ai/ha): 0 | Plant response rating (0 to 100 scale), Wheat ([8]; Postemergence, 500 g ai/ha): 0 | Wheat plant response rating (0 = no effect, 100 = complete control) ([8]; Preemergence, 125 g ai/ha): 0 | Plant response rating (0 to 100 scale), Wheat ([8]; Preemergence, 500 g ai/ha): 0 | Plant response rating, Rice [9]: 0 | Plant response rating, Barnyardgrass [10]: 0 | Plant response rating, Sedge, Umbrella [11]: 0 | Plant response rating, Ducksalad [12]: 0

Cn1cc(C(=O)c2ccccc2)c(-c2cc(Cl)c(Cl)c(Cl)c2)n1 [Compound 11]
Plant response rating (0 to 100 scale), Morningglory ([1]; Postemergence, 1000 g ai/ha): 0 | Plant response rating (0 to 100 scale), Morningglory ([1]; Preemergence, 1000 g ai/ha): 0 | Plant response rating (0 to 100 scale), Velvetleaf ([2]; Postemergence, 1000 g ai/ha): 80 | Plant response rating (0 to 100 scale), Velvetleaf ([2]; Preemergence, 1000 g ai/ha): 70 | Plant response rating (0 to 100 scale), Corn ([3]; Postemergence, 1000 g ai/ha): 0 | Plant response rating (0 to 100 scale), Corn ([3]; Preemergence, 1000 g ai/ha): 0 | Plant response rating (0 to 100 scale), Crabgrass, Large ([4]; Postemergence, 1000 g ai/ha): 0 | Plant response rating (0 to 100 scale), Crabgrass, Large ([4]; Preemergence, 1000 g ai/ha): 0 | Plant response rating (0 to 100 scale), Barnyardgrass ([5]; Postemergence, 1000 g ai/ha): 0 | Plant response rating (0 to 100 scale), Barnyardgrass ([5]; Preemergence, 1000 g ai/ha): 0 | Plant response rating (0 to 100 scale), Foxtail, Giant ([6]; Postemergence, 1000 g ai/ha): 0 | Plant response rating (0 to 100 scale), Foxtail, Giant ([6]; Preemergence, 1000 g ai/ha): 0 | Plant response rating (0 to 100 scale), Pigweed ([7]; Postemergence, 1000 g ai/ha): 90 | Plant response rating (0 to 100 scale), Pigweed ([7]; Preemergence, 1000 g ai/ha): 90 | Plant response rating (0 to 100 scale), Wheat ([8]; Postemergence, 1000 g ai/ha): 0 | Plant response rating (0 to 100 scale), Wheat ([8]; Preemergence, 1000 g ai/ha): 0 | Plant response rating, Rice [9]: 0 | Plant response rating, Sedge, Umbrella [11]: 0 | Plant response rating, Ducksalad [12]: 0

CCn1cc(C(=O)c2ccccc2)c(-c2cc(Cl)c(Cl)c(Cl)c2)n1 [Compound 12]
Plant response rating (0 to 100 scale), Morningglory ([1]; Postemergence, 1000 g ai/ha): 0 | Plant response rating (0 to 100 scale), Morningglory ([1]; Preemergence, 1000 g ai/ha): 0 | Plant response rating (0 to 100 scale), Velvetleaf ([2]; Postemergence, 1000 g ai/ha): 80 | Plant response rating (0 to 100 scale), Velvetleaf ([2]; Preemergence, 1000 g ai/ha): 70 | Plant response rating (0 to 100 scale), Corn ([3]; Postemergence, 1000 g ai/ha): 0 | Plant response rating (0 to 100 scale), Corn ([3]; Preemergence, 1000 g ai/ha): 0 | Plant response rating (0 to 100 scale), Crabgrass, Large ([4]; Postemergence, 1000 g ai/ha): 0 | Plant response rating (0 to 100 scale), Crabgrass, Large ([4]; Preemergence, 1000 g ai/ha): 0 | Plant response rating (0 to 100 scale), Barnyardgrass ([5]; Postemergence, 1000 g ai/ha): 0 | Plant response rating (0 to 100 scale), Barnyardgrass ([5]; Preemergence, 1000 g ai/ha): 0 | Plant response rating (0 to 100 scale), Foxtail, Giant ([6]; Postemergence, 1000 g ai/ha): 0 | Plant response rating (0 to 100 scale), Foxtail, Giant ([6]; Preemergence, 1000 g ai/ha): 0 | Plant response rating (0 to 100 scale), Pigweed ([7]; Postemergence, 1000 g ai/ha): 90 | Plant response rating (0 to 100 scale), Pigweed ([7]; Preemergence, 1000 g ai/ha): 80 | Plant response rating (0 to 100 scale), Wheat ([8]; Postemergence, 1000 g ai/ha): 0 | Plant response rating (0 to 100 scale), Wheat ([8]; Preemergence, 1000 g ai/ha): 0 | Plant response rating, Rice [9]: 0 | Plant response rating, Sedge, Umbrella [11]: 70 | Plant response rating, Ducksalad [12]: 20
